The supplement of paper PMC10307832

Legend:
Assay in all cases: relative viability (nuclei count vs DMSO), 5 days (fraction); higher = more cells survive
Vandetanib + Tozasertib = compound: COc1cc2/c(=N/c3ccc(Br)cc3F)nc[nH]c2cc1OCC1CCN(C)CC1 [Vandetanib] + Cc1cc(Nc2cc(N3CCN(C)CC3)nc(Sc3ccc(NC(=O)C4CC4)cc3)n2)n[nH]1 [Tozasertib] (partner 0.1 µM)
Summary of the method: (§1)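 Dosing by pin tool came one day after lung cancer cell lines were seeded in 1536-well plates, using either one drug or a fixed anchor-drug dose plus five library-drug doses (not always all listed) in √10 steps. After 5 days, nuclei were counted on 4× images. Relative viability is treated-well nuclei count divided by vehicle-well nuclei count, and values are medians of duplicate plates.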

NVP-TAE684 + AZD7762 = compound: COc1cc(N2CCC(N3CCN(C)CC3)CC2)ccc1Nc1ncc(Cl)c(Nc2ccccc2S(=O)(=O)C(C)C)n1 [NVP-TAE684] + NC(=O)Nc1cc(-c2cccc(F)c2)sc1C(=O)N[C@H]1CCCNC1 [AZD7762] (partner 0.2 µM)
Summary of the method: as §1

Vandetanib + Decitabine = compound: COc1cc2/c(=N/c3ccc(Br)cc3F)nc[nH]c2cc1OCC1CCN(C)CC1 [Vandetanib] + Nc1ncn([C@H]2C[C@H](O)[C@@H](CO)O2)c(=O)n1 [Decitabine] (partner 2 µM)
Summary of the method: as §1

NVP-TAE684 + OSI-027 = compound: COc1cc(N2CCC(N3CCN(C)CC3)CC2)ccc1Nc1ncc(Cl)c(Nc2ccccc2S(=O)(=O)C(C)C)n1 [NVP-TAE684] + COc1cccc2cc(-c3nc([C@H]4CC[C@H](C(=O)O)CC4)n4ncnc(N)c34)[nH]c12 [OSI-027] (partner 0.5 µM)
Summary of the method: as §1

Cell Line	relative viability (Vandetanib + Tozasertib; first compound 0.02 µM)	relative viability (Vandetanib + Tozasertib; first compound 0.06325 µM)	relative viability (Vandetanib + Tozasertib; first compound 0.2 µM)	relative viability (Vandetanib + Tozasertib; first compound 0.6325 µM)	relative viability (Vandetanib + Tozasertib; first compound 2 µM)	relative viability (NVP-TAE684 + AZD7762; first compound 0.2 µM)	relative viability (NVP-TAE684 + AZD7762; first compound 0.6325 µM)	relative viability (NVP-TAE684 + AZD7762; first compound 2 µM)	relative viability (Vandetanib + Decitabine; first compound 0.02 µM)	relative viability (Vandetanib + Decitabine; first compound 0.06325 µM)	relative viability (Vandetanib + Decitabine; first compound 0.2 µM)	relative viability (Vandetanib + Decitabine; first compound 0.6325 µM)	relative viability (Vandetanib + Decitabine; first compound 2 µM)	relative viability (NVP-TAE684 + OSI-027; first compound 0.2 µM)	relative viability (NVP-TAE684 + OSI-027; first compound 0.6325 µM)	relative viability (NVP-TAE684 + OSI-027; first compound 2 µM)
201T	0.927	0.992	1.01	0.92	0.938	0.669	0.79	0.521	0.831	0.828	0.859	0.85	0.797	0.762	0.732	0.474
A549	–	–	–	–	–	–	–	–	0.189	0.267	0.281	0.252	0.34	–	–	–
A-427	0.215	0.248	0.219	0.155	0.223	0.69	0.528	0.366	0.58	0.59	0.541	0.517	0.574	0.548	0.396	0.285
ABC-1	0.177	0.173	0.189	0.183	0.117	0.917	0.524	0.472	1.14	1.04	1.13	1.4	0.833	0.393	0.419	0.179
BEN	0.582	0.464	0.521	0.462	0.452	0.794	0.615	0.6	0.651	0.7	0.625	0.725	0.446	0.27	0.311	0.265
CAL-12T	0.346	0.314	0.148	0.249	0.278	0.741	0.492	0.418	–	–	–	–	–	0.538	0.372	0.158
COR-L23	0.189	0.241	0.218	0.223	0.222	–	–	–	0.447	0.442	0.491	0.401	0.422	0.818	0.804	0.316
COR-L 105	0.331	0.355	0.223	0.317	0.286	–	–	–	0.683	0.574	0.622	0.561	0.505	0.636	0.441	0.268
ChaGo-K-1	0.2	0.239	0.248	0.212	0.215	1.02	0.836	–	0.518	0.519	0.287	0.496	0.523	0.589	0.546	0.416
EKVX	0.431	0.424	0.398	0.409	0.27	0.634	0.677	0.375	0.378	0.322	0.345	0.279	0.212	0.577	0.698	0.521
EMC-BAC-2	0.317	0.307	0.151	0.319	0.286	1.12	–	0.536	1.03	0.938	0.902	0.966	0.905	0.364	0.344	0.324
